How the values were obtained:
[1] = system: GTPase KRas (Homo sapiens), P01116 [UNDEFINED MUTATION]; assay: Inhibition of KRas mutant in human DLD1 cells assessed as cell viability by measuring ATP at 20 uM relative to control; type: cell-based
[2] = system: GTPase KRas (Homo sapiens), P01116 [UNDEFINED MUTATION]; assay: Inhibition of KRas mutant in human HCT116 cells assessed as cell viability by measuring ATP at 20 uM relative to control; type: cell-based
HeLa [3] = assay: Cell cycle arrest in human HeLa cells assessed as effect on 2N stage incubated for 21 hrs by propidium iodide based flow cytometry; type: functional
HeLa [4] = assay: Cell cycle arrest in human HeLa cells assessed as effect on 4N stage incubated for 21 hrs by propidium iodide based flow cytometry; type: functional
HeLa [5] = assay: Cell cycle arrest in human HeLa cells assessed as effect on mitotic index incubated for 21 hrs by propidium iodide based flow cytometry; type: functional
HeLa [6] = assay: Cell cycle arrest in human HeLa cells assessed as effect on G1 phase incubated for 21 hrs by propidium iodide based flow cytometry; type: functional
HeLa [7] = assay: Cell cycle arrest in human HeLa cells assessed as effect on S phase incubated for 21 hrs by propidium iodide based flow cytometry; type: functional
[8] = Activation of wnt pathway in mouse C2C12 cells assessed as increase in alkaline phosphatase activity; type: cell-based
[9] = Activation of wnt pathway in mouse C2C12 cells assessed as increase in beta-catenin activity; type: cell-based
[10] = biological target: Microtubule-associated protein tau (Homo sapiens) (UniProt P10636); assay: Inhibition of human Tau at 40 uM relative to control
[11] = biological target: T1, Angiopoietin-like protein 8 (Homo sapiens) (UniProt Q6UXH0); assay: Inhibition of human Angptl8 at 40 uM relative to control
T1 sequence (whole entry): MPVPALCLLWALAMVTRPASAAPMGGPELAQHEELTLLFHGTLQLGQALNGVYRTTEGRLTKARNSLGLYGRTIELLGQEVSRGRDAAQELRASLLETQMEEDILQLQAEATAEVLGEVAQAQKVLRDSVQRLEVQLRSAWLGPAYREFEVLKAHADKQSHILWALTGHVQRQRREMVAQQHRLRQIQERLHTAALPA

[12] = biological target: Apolipoprotein C-III (Homo sapiens) (UniProt P02656); assay: Inhibition of human APOC3 at 40 uM relative to control
[13] = biological target: Proprotein convertase subtilisin/kexin type 9 (Homo sapiens) (UniProt Q8NBP7); assay: Inhibition of human PCSK9 at 40 uM relative to control
[14] = system: GTPase KRas (Homo sapiens), P01116 [UNDEFINED MUTATION]; assay: Inhibition of KRas mutant in human SW480 cells assessed as cell viability by measuring ATP at 0.2 uM relative to control; type: cell-based
[15] = system: GTPase KRas (Homo sapiens), P01116 [UNDEFINED MUTATION]; assay: Inhibition of KRas mutant in human SW480 cells assessed as cell viability by measuring ATP at 2 uM relative to control; type: cell-based
[16] = system: GTPase KRas (Homo sapiens), P01116 [UNDEFINED MUTATION]; assay: Inhibition of KRas mutant in human SW480 cells assessed as cell viability by measuring ATP at 20 uM relative to control; type: cell-based
[17] = system: GTPase KRas (Homo sapiens), P01116 [UNDEFINED MUTATION]; assay: Inhibition of KRas mutant in human DLD1 cells assessed as cell viability by measuring ATP at 0.2 uM relative to control; type: cell-based
[18] = system: GTPase KRas (Homo sapiens), P01116 [UNDEFINED MUTATION]; assay: Inhibition of KRas mutant in human DLD1 cells assessed as cell viability by measuring ATP at 2 uM relative to control; type: cell-based
[19] = system: GTPase KRas (Homo sapiens), P01116 [UNDEFINED MUTATION]; assay: Inhibition of KRas mutant in human HCT116 cells assessed as cell viability by measuring ATP at 0.2 uM relative to control; type: cell-based
[20] = system: GTPase KRas (Homo sapiens), P01116 [UNDEFINED MUTATION]; assay: Inhibition of KRas mutant in human HCT116 cells assessed as cell viability by measuring ATP at 2 uM relative to control; type: cell-based
[21] = system: GTPase KRas (Homo sapiens), P01116 [UNDEFINED MUTATION]; assay: Inhibition of KRas mutant in human HCT116 cells […] assessed as cell viability by measuring ATP at 0.2 uM relative to control; type: cell-based
[22] = system: GTPase KRas (Homo sapiens), P01116 [UNDEFINED MUTATION]; assay: Inhibition of KRas mutant in human HCT116 cells […] assessed as cell viability by measuring ATP at 2 uM relative to control; type: cell-based
[23] = system: GTPase KRas (Homo sapiens), P01116 [UNDEFINED MUTATION]; assay: Inhibition of KRas mutant in human HCT116 cells […] assessed as cell viability by measuring ATP at 20 uM relative to control; type: cell-based
[24] = system: GTPase KRas (Homo sapiens), P01116 [UNDEFINED MUTATION]; assay: Inhibition of KRas mutant in human SW480 cells assessed as cell viability by measuring ATP; type: cell-based
[25] = system: GTPase KRas (Homo sapiens), P01116 [UNDEFINED MUTATION]; assay: Inhibition of KRas mutant in human DLD1 cells assessed as cell viability by measuring ATP; type: cell-based
[26] = system: GTPase KRas (Homo sapiens), P01116 [UNDEFINED MUTATION]; assay: Inhibition of KRas mutant in human HCT116 cells assessed as cell viability by measuring ATP; type: cell-based
[27] = system: GTPase KRas (Homo sapiens), P01116 [UNDEFINED MUTATION]; assay: Inhibition of KRas mutant in human HCT116 cells […] assessed as cell viability by measuring ATP; type: cell-based
HeLa [28] = assay: Cell cycle arrest in human HeLa cells incubated for 21 hrs by propidium iodide based flow cytometry; type: functional
[29] = biological target: Sodium channel protein type 9 subunit alpha (Homo sapiens) (UniProt Q15858); assay: Inhibition of human Nav1.7 at 40 uM relative to control
HT-29 [30] = assay: Antiproliferative activity against human HT-29 cells assessed as reduction in cell viability incubated for 24 hrs by MTT assay; type: functional, cell-based; conditions: HT-29, 24 h
HT-29 [31] = assay: Antiproliferative activity against human HT-29 cells assessed as reduction in cell viability incubated for 24 hrs in hypoxia condition by MTT assay; type: functional, cell-based; conditions: HT-29, 24 h
HT-29 [32] = assay: Selectivity index, ratio of IC50 of antiproliferative activity against human HT-29 cells in normoxia to IC50 of antiproliferative activity against human HT-29 cells in hypoxia condition; type: functional

Sequence of Proprotein convertase subtilisin/kexin type 9 (Homo sapiens) (Q8NBP7 31-152 limits assumed): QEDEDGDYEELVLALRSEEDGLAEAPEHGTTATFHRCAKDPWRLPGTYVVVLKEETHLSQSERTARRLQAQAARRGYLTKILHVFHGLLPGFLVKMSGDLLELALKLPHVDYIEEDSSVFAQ
Sequence of Proprotein convertase subtilisin/kexin type 9 (Homo sapiens) (Q8NBP7 153-692 limits assumed): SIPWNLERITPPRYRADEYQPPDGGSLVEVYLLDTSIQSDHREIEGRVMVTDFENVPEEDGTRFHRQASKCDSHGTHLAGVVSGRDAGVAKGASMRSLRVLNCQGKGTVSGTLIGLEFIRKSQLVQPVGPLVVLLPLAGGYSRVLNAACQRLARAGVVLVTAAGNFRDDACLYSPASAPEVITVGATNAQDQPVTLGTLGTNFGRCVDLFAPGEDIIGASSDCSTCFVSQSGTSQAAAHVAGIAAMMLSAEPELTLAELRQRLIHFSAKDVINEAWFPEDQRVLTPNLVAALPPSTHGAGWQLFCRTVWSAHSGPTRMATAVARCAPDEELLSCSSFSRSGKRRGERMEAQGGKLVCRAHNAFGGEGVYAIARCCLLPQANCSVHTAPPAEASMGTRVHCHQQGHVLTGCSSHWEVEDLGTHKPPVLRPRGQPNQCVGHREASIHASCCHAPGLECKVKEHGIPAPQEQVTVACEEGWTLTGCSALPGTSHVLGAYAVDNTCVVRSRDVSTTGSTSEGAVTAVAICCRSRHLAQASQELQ
Sequence of Apolipoprotein C-III (Homo sapiens) (P02656 whole entry): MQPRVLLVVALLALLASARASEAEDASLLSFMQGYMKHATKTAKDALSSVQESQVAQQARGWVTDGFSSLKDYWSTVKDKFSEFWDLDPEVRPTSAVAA
Sequence of GTPase KRas (Homo sapiens), P01116 [UNDEFINED MUTATION] (P01116 whole entry, looked up, change not shown): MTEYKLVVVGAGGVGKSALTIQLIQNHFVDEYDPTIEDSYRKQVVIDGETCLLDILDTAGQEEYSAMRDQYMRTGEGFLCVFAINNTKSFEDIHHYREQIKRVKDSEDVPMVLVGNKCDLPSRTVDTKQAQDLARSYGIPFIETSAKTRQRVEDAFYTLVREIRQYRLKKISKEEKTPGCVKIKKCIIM
Sequence of Sodium channel protein type 9 subunit alpha (Homo sapiens) (Q15858 whole entry, looked up): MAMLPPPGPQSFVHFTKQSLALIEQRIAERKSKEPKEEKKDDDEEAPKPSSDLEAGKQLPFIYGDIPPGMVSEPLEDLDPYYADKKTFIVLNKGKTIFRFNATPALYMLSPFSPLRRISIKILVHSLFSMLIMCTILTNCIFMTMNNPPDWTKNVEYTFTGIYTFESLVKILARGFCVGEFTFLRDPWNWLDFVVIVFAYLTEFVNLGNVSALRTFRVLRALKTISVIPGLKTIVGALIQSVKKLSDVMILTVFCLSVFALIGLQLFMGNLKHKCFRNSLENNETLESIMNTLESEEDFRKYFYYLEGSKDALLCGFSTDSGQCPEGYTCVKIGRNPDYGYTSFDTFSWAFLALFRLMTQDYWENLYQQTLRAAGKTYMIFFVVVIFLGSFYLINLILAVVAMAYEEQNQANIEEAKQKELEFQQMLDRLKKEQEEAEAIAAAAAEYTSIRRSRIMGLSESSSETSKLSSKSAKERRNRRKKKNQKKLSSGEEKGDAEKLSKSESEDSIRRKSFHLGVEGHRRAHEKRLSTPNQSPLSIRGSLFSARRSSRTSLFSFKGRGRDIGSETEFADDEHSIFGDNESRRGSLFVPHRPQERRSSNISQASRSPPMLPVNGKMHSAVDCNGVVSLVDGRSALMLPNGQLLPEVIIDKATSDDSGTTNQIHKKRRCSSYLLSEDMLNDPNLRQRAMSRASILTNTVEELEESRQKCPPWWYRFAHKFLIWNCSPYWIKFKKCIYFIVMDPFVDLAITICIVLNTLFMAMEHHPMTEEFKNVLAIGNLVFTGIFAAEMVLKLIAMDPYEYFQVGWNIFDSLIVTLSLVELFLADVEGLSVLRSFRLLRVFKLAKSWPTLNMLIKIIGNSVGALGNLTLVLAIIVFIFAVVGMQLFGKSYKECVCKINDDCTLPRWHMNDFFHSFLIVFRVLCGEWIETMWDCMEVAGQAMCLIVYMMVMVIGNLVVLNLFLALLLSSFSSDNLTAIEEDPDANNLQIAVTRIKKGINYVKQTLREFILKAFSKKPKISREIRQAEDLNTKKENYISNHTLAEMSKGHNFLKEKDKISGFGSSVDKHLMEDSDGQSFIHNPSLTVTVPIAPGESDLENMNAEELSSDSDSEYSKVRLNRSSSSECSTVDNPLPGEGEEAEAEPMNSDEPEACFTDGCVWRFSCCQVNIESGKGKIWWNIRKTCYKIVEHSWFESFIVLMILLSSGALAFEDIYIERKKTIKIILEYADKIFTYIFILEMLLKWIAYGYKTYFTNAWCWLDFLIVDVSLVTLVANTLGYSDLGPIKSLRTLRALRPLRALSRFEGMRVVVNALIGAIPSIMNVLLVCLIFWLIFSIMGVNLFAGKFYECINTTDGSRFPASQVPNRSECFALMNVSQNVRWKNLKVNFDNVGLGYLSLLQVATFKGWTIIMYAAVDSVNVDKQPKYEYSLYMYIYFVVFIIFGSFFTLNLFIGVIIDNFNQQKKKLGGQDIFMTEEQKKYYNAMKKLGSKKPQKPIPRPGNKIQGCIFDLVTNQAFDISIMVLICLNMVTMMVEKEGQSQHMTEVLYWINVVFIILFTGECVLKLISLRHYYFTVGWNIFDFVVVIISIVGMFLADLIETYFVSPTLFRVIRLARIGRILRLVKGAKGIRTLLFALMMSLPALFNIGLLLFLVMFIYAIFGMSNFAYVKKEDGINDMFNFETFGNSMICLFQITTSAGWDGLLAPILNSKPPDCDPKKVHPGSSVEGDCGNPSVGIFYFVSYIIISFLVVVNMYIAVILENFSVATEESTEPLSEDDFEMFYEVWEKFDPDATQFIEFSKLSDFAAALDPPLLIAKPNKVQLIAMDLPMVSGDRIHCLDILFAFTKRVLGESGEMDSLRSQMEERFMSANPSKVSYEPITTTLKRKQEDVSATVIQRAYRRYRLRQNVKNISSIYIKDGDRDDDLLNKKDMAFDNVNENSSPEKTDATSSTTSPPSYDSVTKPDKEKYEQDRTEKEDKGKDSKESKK
Sequence of Microtubule-associated protein tau (Homo sapiens) (P10636 whole entry): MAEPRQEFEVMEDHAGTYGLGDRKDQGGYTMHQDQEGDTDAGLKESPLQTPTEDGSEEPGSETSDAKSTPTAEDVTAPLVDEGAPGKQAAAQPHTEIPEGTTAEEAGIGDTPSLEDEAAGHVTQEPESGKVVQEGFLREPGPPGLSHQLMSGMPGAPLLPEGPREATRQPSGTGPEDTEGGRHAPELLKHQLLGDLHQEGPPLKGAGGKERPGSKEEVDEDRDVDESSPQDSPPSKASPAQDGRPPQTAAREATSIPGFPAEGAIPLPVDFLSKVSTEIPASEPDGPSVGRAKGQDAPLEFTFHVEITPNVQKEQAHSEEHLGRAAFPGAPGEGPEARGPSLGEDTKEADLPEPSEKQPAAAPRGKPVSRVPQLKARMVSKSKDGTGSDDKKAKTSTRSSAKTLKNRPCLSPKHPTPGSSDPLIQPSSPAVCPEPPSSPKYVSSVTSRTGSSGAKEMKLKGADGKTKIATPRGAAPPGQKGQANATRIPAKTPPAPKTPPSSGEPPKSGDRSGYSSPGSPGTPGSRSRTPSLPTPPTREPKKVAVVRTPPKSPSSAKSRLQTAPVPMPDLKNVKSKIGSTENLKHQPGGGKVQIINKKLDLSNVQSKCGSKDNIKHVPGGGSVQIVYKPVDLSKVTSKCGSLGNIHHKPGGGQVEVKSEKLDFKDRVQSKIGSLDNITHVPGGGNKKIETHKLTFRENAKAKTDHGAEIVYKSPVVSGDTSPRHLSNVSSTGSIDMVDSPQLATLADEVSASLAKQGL

IC50 (HeLa [3]) | EC50 (HeLa [4]) | EC50 (HeLa [5]) | EC50 (HeLa [6]) | IC50 (HeLa [7]) | EC50 [8] | EC50 [9] | inhibition [10] | inhibition [11] | inhibition [12] | inhibition [13] | SMILES | inhibition [1] | inhibition [2] | inhibition [14] | inhibition [15] | inhibition [16] | inhibition [18] | inhibition [20] | inhibition [22] | inhibition [23] | other results
> 10 µM | > 10 µM | > 10 µM | > 10 µM | > 10 µM | > 10 µM | > 10 µM | 23% | 34% | 12% | -7% | CCCCCc1c2c(c(C)c3c1Oc1cc(OC)ccc1O3)C(=O)OC2 | -3.9% | 26% |  |  |  |  |  |  |  | 
1.5 µM | 1.4 µM | 1.3 µM | > 10 µM | > 10 µM | 8.2 µM | > 20 µM | 56% | 67% | 67% | 35% | Cc1c2c(c(CCCCBr)c3c1Oc1ccccc1O3)C(=O)OC2 | 76% | 76% | 7% | 62% | 63% | 45% | 56% | 58% | 53% | inhibition [17]: 30%; inhibition [19]: 33%; inhibition [21]: 15%; inhibition [24]: Dose-dependent effect; inhibition [25]: Dose-dependent effect; inhibition [26]: Dose-dependent effect; inhibition [27]: Dose-dependent effect; IC50 (HeLa [28]): 0.6 µM; inhibition [29]: 0%
 |  |  |  |  |  |  | 30% | 27% | 7% | -4% | CCCCCCc1c2c(c(C)c3c1Oc1ccccc1O3)C(=O)SC2 | 14% | 13% | 10% | 10% | 21% | 6% | 2.9% | -5.6% | 3.4% | inhibition [17]: -10%; inhibition [19]: -10%; inhibition [29]: -2%
> 10 µM | > 10 µM | > 10 µM | > 10 µM | > 10 µM | > 10 µM | > 10 µM | 60% | 59% | 38% | 42% | CCCCCc1c2c(c(C)c3c1C(=O)OC3)Oc1ccc(OC)cc1O2 | 73% | 40% | 15% | 16% | 19% | 16% | 7.9% | 8% | 6% | inhibition [21]: 52%; inhibition [29]: 22%
> 10 µM | > 10 µM | > 10 µM | > 10 µM | > 10 µM | > 10 µM | > 10 µM | 20% | 31% | 21% | 30% | CCCCCCc1c2c(c(C)c3c1C(=O)SC3)Oc1ccccc1O2 | 90% | 40% | 13% | 9% | 22% | 7% | 10% | -4% | 18% | inhibition [17]: -9%; IC50 (HeLa [28]): > 10 µM; inhibition [29]: -10%
 |  |  |  |  |  |  |  |  |  |  | CCc1c2c(nc3ccc(OC(=O)N4CCC(N5CCCCC5)CC4)cc13)-c1cc3c(c(=O)n1C2)COC(=O)[C@]3(O)CC [IRINOTECAN] |  |  |  |  |  |  |  |  |  | IC50 (HT-29 [30]): 3.96 µM; IC50 (HT-29 [31]): 3.55 µM; Ratio IC50 (HT-29 [32]): 1.12
 |  |  |  |  |  |  | 8% | 15% | 34% | 15% | CCCCc1c2c(c(C)c3c1Oc1ccccc1O3)C(=O)OC2 | 41% | 38% | 12% | 14% | 14% | 6% | 7% | 0.4% | 2% | inhibition [19]: 39%
